This note sets out measurements from ChEMBL document CHEMBL4265930, “Dual potent ALK and ROS1 inhibitors combating drug-resistant mutants: Synthesis and biological evaluation of aminopyridine-containing diarylaminopyrimidine derivatives” (Eur J Med Chem, 2018).

Calls of active or inactive are those of the source. No cut-off for these calls is given here.

In assay [1] the target is T1, ALK tyrosine kinase receptor (Homo sapiens, UniProt Q9UM73).
Target sequence in this assay (Q9UM73 whole entry): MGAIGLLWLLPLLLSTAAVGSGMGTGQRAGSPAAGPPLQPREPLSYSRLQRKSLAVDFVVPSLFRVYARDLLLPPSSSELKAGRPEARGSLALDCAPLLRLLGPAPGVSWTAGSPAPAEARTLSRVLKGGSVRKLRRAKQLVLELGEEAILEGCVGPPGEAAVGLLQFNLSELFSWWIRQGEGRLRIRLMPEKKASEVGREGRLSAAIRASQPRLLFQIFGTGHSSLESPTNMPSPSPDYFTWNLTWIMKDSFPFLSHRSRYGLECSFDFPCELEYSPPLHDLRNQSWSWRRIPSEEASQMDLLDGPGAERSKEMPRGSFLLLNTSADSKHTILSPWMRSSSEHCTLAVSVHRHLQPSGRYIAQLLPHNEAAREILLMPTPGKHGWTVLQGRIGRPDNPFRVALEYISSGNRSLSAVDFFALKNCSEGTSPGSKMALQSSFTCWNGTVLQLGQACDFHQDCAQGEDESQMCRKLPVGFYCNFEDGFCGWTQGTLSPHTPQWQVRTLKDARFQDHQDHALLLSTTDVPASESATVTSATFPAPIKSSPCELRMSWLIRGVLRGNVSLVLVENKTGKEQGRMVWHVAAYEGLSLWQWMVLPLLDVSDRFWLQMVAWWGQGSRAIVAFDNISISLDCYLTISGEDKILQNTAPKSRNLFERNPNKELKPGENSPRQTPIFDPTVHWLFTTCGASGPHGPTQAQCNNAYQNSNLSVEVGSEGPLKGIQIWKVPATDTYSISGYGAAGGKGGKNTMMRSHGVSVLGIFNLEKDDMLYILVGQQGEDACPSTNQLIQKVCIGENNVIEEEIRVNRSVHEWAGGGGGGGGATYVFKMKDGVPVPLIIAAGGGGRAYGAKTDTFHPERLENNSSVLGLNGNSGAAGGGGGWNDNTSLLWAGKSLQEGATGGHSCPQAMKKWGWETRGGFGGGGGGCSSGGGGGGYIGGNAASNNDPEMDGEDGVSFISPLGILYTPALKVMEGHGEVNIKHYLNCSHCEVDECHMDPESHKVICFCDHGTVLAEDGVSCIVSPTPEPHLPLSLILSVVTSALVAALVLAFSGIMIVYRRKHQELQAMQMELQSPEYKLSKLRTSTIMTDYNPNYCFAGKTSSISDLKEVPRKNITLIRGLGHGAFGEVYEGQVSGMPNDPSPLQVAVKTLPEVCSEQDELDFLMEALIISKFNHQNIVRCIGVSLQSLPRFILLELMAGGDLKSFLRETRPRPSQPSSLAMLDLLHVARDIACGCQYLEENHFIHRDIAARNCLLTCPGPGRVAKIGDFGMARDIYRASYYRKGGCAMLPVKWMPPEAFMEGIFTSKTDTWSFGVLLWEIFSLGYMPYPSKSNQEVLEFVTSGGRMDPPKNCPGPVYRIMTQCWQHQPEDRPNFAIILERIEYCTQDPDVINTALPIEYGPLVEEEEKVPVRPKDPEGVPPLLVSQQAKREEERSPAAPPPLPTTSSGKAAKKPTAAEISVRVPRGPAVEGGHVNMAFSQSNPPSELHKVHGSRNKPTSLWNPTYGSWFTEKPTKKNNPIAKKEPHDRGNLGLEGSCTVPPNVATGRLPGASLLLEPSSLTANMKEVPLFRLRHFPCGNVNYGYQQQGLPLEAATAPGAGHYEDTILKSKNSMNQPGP
Description: Inhibition of human N-terminal GST-tagged ALK cytoplasmic domain (1058 to 1620 residues) expressed in baculovirus expression system after 1 hr by mobility shift assay
For assay [2], the target named is ALK tyrosine kinase receptor (Homo sapiens, UniProt Q9UM73, G1202R).
Chain of ALK tyrosine kinase receptor (Homo sapiens, UniProt Q9UM73, G1202R) (Q9UM73 19-1620 G1202R limits assumed): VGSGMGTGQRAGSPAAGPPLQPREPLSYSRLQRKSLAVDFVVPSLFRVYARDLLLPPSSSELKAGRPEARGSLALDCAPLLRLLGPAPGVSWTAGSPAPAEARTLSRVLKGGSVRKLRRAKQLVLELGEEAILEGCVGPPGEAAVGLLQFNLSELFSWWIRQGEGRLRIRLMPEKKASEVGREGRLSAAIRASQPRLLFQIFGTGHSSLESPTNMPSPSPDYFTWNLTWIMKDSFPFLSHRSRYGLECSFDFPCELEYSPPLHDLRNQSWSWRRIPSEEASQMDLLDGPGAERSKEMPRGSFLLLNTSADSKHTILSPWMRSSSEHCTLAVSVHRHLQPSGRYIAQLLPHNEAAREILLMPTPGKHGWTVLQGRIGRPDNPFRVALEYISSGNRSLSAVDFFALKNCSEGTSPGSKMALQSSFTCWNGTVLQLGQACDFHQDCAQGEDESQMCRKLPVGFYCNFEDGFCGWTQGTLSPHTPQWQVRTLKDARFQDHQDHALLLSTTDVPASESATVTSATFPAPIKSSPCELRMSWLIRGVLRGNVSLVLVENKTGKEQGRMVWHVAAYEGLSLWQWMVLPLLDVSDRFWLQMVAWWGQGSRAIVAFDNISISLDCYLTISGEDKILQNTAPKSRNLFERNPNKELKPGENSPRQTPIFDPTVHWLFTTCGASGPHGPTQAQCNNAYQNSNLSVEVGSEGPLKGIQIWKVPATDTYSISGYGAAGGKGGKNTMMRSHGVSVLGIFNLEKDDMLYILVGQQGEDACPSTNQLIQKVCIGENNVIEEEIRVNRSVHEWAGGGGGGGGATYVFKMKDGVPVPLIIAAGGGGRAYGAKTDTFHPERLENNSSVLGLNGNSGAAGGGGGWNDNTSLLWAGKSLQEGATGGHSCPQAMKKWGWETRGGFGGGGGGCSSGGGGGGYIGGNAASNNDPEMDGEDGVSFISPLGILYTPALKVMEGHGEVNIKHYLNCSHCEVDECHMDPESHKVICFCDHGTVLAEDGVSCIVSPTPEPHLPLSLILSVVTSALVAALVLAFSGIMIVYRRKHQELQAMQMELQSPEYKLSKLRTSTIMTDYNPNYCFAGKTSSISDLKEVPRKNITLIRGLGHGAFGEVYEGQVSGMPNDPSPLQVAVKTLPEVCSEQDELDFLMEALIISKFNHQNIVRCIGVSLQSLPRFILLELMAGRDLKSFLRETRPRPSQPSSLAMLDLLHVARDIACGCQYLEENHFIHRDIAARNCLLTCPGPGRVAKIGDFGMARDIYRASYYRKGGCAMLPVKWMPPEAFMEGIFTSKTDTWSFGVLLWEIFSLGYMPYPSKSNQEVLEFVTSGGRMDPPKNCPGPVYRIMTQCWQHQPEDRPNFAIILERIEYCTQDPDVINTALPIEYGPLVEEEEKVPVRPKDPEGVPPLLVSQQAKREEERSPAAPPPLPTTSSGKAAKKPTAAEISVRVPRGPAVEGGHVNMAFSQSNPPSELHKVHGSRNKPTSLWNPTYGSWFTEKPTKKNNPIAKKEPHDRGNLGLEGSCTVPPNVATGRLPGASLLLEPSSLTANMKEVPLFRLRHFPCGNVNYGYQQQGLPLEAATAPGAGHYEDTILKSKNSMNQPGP
The subject of assay [3] is KARPAS-299. Kind of assay: cells. The settings on record: Homo sapiens, KARPAS-299, 72 h.
Description: Antiproliferative activity against human KARPAS299 cells harboring NPM-ALK after 72 hrs by MTT assay
In assay [4] the target is ALK tyrosine kinase receptor (Homo sapiens, UniProt Q9UM73, L1196M).
Chain of ALK tyrosine kinase receptor (Homo sapiens, UniProt Q9UM73, L1196M) (Q9UM73 19-1620 L1196M limits assumed): as the sequence (Q9UM73 19-1620 G1202R limits assumed) above, with L1178M, R1184G counted along it
Description: Inhibition of human N-terminal GST-tagged ALK L1196M mutant cytoplasmic domain (1058 to 1620 residues) expressed in baculovirus expression system after 1 hr by mobility shift assay
The subject of a further assay is BaF3. Kind of assay: cells. The settings on record: Mus musculus, BaF3, 72 h.
Assay [5] addresses Proto-oncogene tyrosine-protein kinase ROS (Homo sapiens, UniProt P08922). Kind of assay: Inhibition of human N-terminal GST-tagged ROS cytoplasmic domain (1883 to 2347 residues) expressed in baculovirus expression system after 1 hr by mobility shift assay.
The target in assay [6] is Epidermal growth factor receptor (Homo sapiens, UniProt P00533).
Chain of Epidermal growth factor receptor (P00533 whole entry): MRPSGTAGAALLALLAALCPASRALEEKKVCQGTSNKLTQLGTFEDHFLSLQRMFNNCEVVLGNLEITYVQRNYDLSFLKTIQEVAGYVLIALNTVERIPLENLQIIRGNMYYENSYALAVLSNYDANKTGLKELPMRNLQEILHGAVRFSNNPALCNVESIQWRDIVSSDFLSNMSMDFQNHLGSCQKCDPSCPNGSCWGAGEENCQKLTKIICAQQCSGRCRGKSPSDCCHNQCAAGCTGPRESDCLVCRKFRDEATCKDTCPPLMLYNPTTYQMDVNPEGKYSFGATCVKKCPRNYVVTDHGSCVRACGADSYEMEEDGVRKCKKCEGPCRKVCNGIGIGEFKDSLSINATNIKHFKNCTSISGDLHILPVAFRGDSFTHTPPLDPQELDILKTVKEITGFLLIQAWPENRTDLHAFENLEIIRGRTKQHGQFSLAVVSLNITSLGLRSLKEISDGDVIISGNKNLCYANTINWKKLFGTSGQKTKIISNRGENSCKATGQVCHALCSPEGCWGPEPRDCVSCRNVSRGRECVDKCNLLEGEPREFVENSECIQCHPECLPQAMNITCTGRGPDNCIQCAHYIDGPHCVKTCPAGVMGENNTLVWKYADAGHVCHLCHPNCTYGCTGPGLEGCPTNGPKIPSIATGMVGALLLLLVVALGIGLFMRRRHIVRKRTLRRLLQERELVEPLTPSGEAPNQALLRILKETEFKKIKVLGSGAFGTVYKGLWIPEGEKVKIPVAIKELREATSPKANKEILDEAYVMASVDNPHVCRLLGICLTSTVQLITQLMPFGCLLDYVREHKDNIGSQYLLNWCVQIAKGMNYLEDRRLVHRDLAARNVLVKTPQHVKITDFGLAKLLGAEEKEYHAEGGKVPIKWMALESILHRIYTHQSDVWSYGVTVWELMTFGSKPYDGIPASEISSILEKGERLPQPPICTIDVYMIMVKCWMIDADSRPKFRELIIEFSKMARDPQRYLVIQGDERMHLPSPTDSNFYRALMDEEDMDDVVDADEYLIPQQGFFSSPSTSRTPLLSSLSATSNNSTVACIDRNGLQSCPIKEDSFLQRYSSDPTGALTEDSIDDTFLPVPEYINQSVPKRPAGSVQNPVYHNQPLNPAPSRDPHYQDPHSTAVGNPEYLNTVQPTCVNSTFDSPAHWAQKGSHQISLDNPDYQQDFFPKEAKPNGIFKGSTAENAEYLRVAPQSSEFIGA
Description: Inhibition of human N-terminal GST-tagged EGFR cytoplasmic domain (669 to 1210 residues) expressed in baculovirus expression system after 1 hr by mobility shift assay
For the next assay, the system named is NCI-H2228. Put plainly: cells. As to conditions: Homo sapiens, NCI-H2228, 72 h.
A further assay deals with A549. Put plainly: cells. The settings on record: Homo sapiens, A549, 72 h.
For another assay, the system named is HCC78. Put plainly: Antiproliferative activity against human HCC78 cells harboring SLC34A2-ROS1 after 72 hrs by MTT assay. The assay is classed as functional, cell-based. As to conditions: HCC78, 72 h. A general note: Tetrazolium dyes change colour on reduction, which living cells bring about.
For assay [7], the system named is ALK tyrosine kinase receptor (Homo sapiens), Q9UM73 [L1196M]. Kind of assay: Potency index, ratio of ceritinib IC50 to compound IC50 for human N-terminal GST-tagged ALK L1196M mutant cytoplasmic domain (1058 to 1620 residues) expressed in baculovirus expression system.
Chain of ALK tyrosine kinase receptor (Homo sapiens), Q9UM73 [L1196M] (Q9UM73 whole entry L1196M, looked up, the tested form may be a part): as the sequence (Q9UM73 whole entry) above, with L1196M counted along it
Assay [8] deals with KARPAS-299. Put plainly: Induction of apoptosis in human KARPAS299 cells assessed as early apoptotic cells at 25 to 50 nM after 24 hrs by Hoechst 33258 staining based inverted fluorescence microscopy. The format is functional, cell-based.
Assay [9] has as its system ALK tyrosine kinase receptor (Homo sapiens), Q9UM73 [G1202R]. Put plainly: Potency index, ratio of ceritinib IC50 to compound IC50 for human N-terminal GST-tagged ALK G1202R mutant cytoplasmic domain (1058 to 1620 residues) expressed in baculovirus expression system.
Assay [10] has as its target T1, ALK tyrosine kinase receptor. Put plainly: Inhibition of ALK in human KARPAS299 cells assessed as decrease in STAT3 phosphorylation after 24 hrs by Western blot analysis. The assay is classed as cell-based. On the technique in general: A western blot detects proteins with antibodies after separation by electrophoresis.
Target sequence in this assay (Q9UM73 19-1620 limits assumed): as the sequence (Q9UM73 19-1620 G1202R limits assumed) above, with R1184G counted along it
The target is the same in assay [11]. Kind of assay: Inhibition of ALK in human KARPAS299 cells assessed as decrease in Akt phosphorylation after 24 hrs by Western blot analysis. The assay is classed as cell-based.
Target sequence in this assay (Q9UM73 19-1620 limits assumed): as the sequence (Q9UM73 19-1620 G1202R limits assumed) above, with R1184G counted along it
For assay [12] the target is unchanged. Put plainly: Inhibition of ALK phosphorylation in human KARPAS299 cells after 24 hrs by Western blot analysis. The assay is classed as cell-based.
Target sequence in this assay (Q9UM73 19-1620 limits assumed): as the sequence (Q9UM73 19-1620 G1202R limits assumed) above, with R1184G counted along it
Assay [13] deals with KARPAS-299. Kind of assay: Induction of apoptosis in human KARPAS299 cells assessed as late apoptotic cells at 25 to 50 nM after 24 hrs by AO/EB double staining based inverted fluorescence microscopy. The format is functional, cell-based.

Chain of ALK tyrosine kinase receptor (Homo sapiens), Q9UM73 [G1202R] (Q9UM73 whole entry G1202R, the tested form may be a part): as the sequence (Q9UM73 whole entry) above, with G1202R counted along it
Description for A549: Antiproliferative activity against human A549 cells after 72 hrs by MTT assay
Description for NCI-H2228: Antiproliferative activity against human NCI-H2228 cells harboring EML4-ALK after 72 hrs by MTT assay

By IC50 is commonly meant the point on the concentration scale where inhibition reaches its midpoint. Regarding `CC(C)Oc1nc(N2CCN(C)CC2)ccc1Nc1ncc(Cl)c(Nc2ccccc2NS(C)(=O)=O)n1`, the IC50 in assay [1] is 4.2 µM; in assay [2], 9.4 µM; with KARPAS-299 [3], 0.018 µM; in [4], 4.8 µM; in the assay on BaF3, 0.88 µM; in [5], 2 µM. Moreover, the IC50 in [6] was more than 1000 µM; with NCI-H2228, 0.046 µM; in the assay on A549, 0.88 µM; with HCC78, 0.26 µM.

As to `COc1nc(N2CCN(C)CC2)ccc1Nc1ncc(Cl)c(Nc2ccccc2NS(C)(=O)=O)n1`, the IC50 in assay [1] turned out to be 2.1 µM; in assay [2], 3.9 µM; with KARPAS-299 [3] it was 0.01 µM; in [4] it was 1.3 µM; in the assay with BaF3 it was 0.03 µM; in assay [5], 2.3 µM. The concentration for half-maximal inhibition (IC50) in assay [6] was more than 1000 µM; in the assay on NCI-H2228 it was 0.012 µM; in the assay on A549 it was more than 1 µM; in the assay on HCC78 it was 0.043 µM. In addition, the Ratio IC50 in assay [7] and in assay [9] was 11 to 23 throughout. In addition, the result in the assay with KARPAS-299 [8] and in the assay on KARPAS-299 [13] was Active. Also, the inhibition entry in [10], in [11] and in [12] was “Dose-dependent effect” throughout.

Take `COc1nc(N2CC(O)C2)ccc1Nc1ncc(Cl)c(Nc2ccccc2NS(C)(=O)=O)n1`: the IC50 was 1.4 µM in assay [1]; 5.2 µM in assay [2]; 0.06 µM with KARPAS-299 [3]; 2 µM in [4]; 0.032 µM in the assay on BaF3; 1.6 µM in assay [5]. Besides, the IC50 is more than 1000 µM in assay [6], 0.042 µM in the assay with NCI-H2228, more than 1 µM with A549 and 0.035 µM with HCC78.

Take `COc1nc(N2CCN(C)CC2)ccc1Nc1ncc(Cl)c(Nc2ccccc2NS(=O)(=O)C2CC2)n1`: the IC50 in assay [1] was 3.9 µM; in assay [2], 6 µM; in the assay on KARPAS-299 [3], 0.028 µM; in assay [4] it was 3.9 µM; in the assay with BaF3 it was 0.09 µM; in assay [5], 4.6 µM. The IC50 was more than 1000 µM in assay [6], 0.06 µM in the assay on NCI-H2228, more than 1 µM with A549 and 0.27 µM with HCC78.
